Laboratory results from patent publication US20200229435A1, “ANTIMICROBIAL MIXTURE CONTAINING 4-(3-ETHOXY-4-HYDROXYPHENYL)BUTAN-2-ONE AND AN AMMONIUM COMPOUND, AND COSMETIC COMPOSITION CONTAINING SAME” (L'OREAL, priority 2017, published 2020).

Key:
Assay type in all cases: cell-based
[1] = test system: Aspergillus niger ATCC 6275; experiment: MIC / synergy (FIC index) microplate growth test, optical density at 620 nm, Aspergillus niger
Text: (§1) FIC Index=(MICa with B/MICa)+(MICb with A/MICb)
(§2) with: • MICa with B: minimum concentration of product A in the combination A+B which makes it possible to obtain an inhibitory effect • MICb with A: minimum concentration of product B in the combination A+B which makes it possible to obtain the inhibitory effect. • MICa: minimum inhibitory concentration of product A alone. • MICb: minimum inhibitory concentration of product B alone.
(§3) As regards the combinations tested, MICa with b and MICb with a are the respective concentrations of A and of B in the combinations which make it possible to obtain a microbial growth percentage of less than or equal to 25%.
(§4) When the FIC index value is less than or equal to 1, it is considered that the combination of test compounds has a synergistic effect.
The microbial strain Aspergillus niger ATCC 6275, and a double-concentration Sabouraud broth liquid culture medium supplemented with polyoxyethylenated (20 OE) sorbitan monopalmitate (Tween 40 from Croda) and Phytagel© BioReagent were used.
(§5) A 96-well microplate and an […] of 32.5° C. are used.
(§6) The incubation time of the microplate is: • from 24 hours to 48 hours aerobically for Aspergillus niger; • from 18 to 24 hours aerobically for Candida albicans and Pseudomonas aeruginosa.
(§7) A 10% (weight/volume) stock solution was prepared by mixing 1 g of compound in 9 ml of aqueous 1% agar solution. Successive dilutions were made with the 1% agar solution. • Tests of compounds A and B alone
(§8) 50 μL of each of the daughter solutions obtained containing compound A or B are added to the microplate wells. 100 μL of Sabouraud liquid nutrient broth seeded with the strain Aspergillus niger and 50 μL of aqueous 1% agar solution are also added thereto. • Tests of compounds A and B as a mixture
(§9) 50 μL of each of the daughter solutions obtained containing compound A and 50 μL of each of the daughter solutions obtained containing compound B are added to the microplate wells. 100 μL of Sabouraud liquid nutrient broth seeded at double concentration with the strain Aspergillus niger are also added thereto.
(§10) A positive microbial growth control was also prepared. The positive microbial growth control corresponds to a mixture of 100 μL of aqueous 1% agar solution with 100 μL of Sabouraud liquid nutrient broth seeded at double concentration with the strain Aspergillus niger in the absence of compounds A and B.
(§11) An absorbance control was performed in parallel on compounds A and B alone. This control corresponds to 100 μL of double concentration sterile Sabouraud liquid nutrient broth+100 μL of double concentration compound A or B.
In the two cases (test and control), the inoculum represents the concentration of the strain Aspergillus niger present in the final volume of the wells (200 μL) and is between 2 and 6×10^5 cfu/ml of Aspergillus niger.

[2] = test system: Pseudomonas aeruginosa ATCC 9027; experiment: MIC / synergy (FIC index) microplate growth test, optical density at 620 nm, Pseudomonas aeruginosa
Text: as §1, §2, §3, §4
The microbial strain Pseudomonas aeruginosa ATCC 9027 and a double-concentration nutritive broth liquid culture medium were used.
as §5, §6, §7, §8, §9, §10, §11
(§12) The test as described above (tests, absorbance control and growth control) was performed again to test the combination A+B on the strains Candida albicans and Pseudomonas aeruginosa.

[3] = test system: Candida albicans ATCC 10231; experiment: MIC / synergy (FIC index) microplate growth test, optical density at 620 nm, Candida albicans
Text: as §1, §2, §3, §4
The microbial strain Candida albicans ATCC 10231 and a double-concentration Sabouraud broth liquid culture medium were used.
as §5, §6, §7, §8, §9, §10, §11, §12

[4] = weight %, first concentration giving growth <= 25%

SMILES: CCOc1cc(CCC(C)=O)ccc1O [A, 4-(3-ethoxy-4-hydroxyphenyl)butan-2-one]
- microbial growth percentage ([1]; Example 1, A 0.025 weight % alone): 150%
- microbial growth percentage ([1]; Example 1, A 0.05 weight % alone): 113%
- microbial growth percentage ([1]; Example 1, A 0.1 weight % alone): 112%
- microbial growth percentage ([1]; Example 1, A 0.2 weight % alone): 75%
- microbial growth percentage ([1]; Example 1, A 0.4 weight % alone): 5%
- % MIC of A alone ([1]; Example 1, weight %, first concentration giving growth <= 25%): 0.4%
- microbial growth percentage ([1]; Example 2, A 0.025 weight % alone): 212%
- microbial growth percentage ([1]; Example 2, A 0.05 weight % alone): 92%
- microbial growth percentage ([1]; Example 2, A 0.1 weight % alone): 68%
- microbial growth percentage ([1]; Example 2, A 0.2 weight % alone): 29%
- microbial growth percentage ([1]; Example 2, A 0.4 weight % alone): 17%
- % MIC of A alone ([1]; Example 2, weight %, first concentration giving growth <= 25%): 0.4%
- microbial growth percentage ([2]; A 0.0625 weight % alone): 114%
- microbial growth percentage ([2]; A 0.125 weight % alone): 59%
- microbial growth percentage ([2]; A 0.25 weight % alone): 65%
- microbial growth percentage ([2]; A 0.5 weight % alone): 41%
- microbial growth percentage ([2]; A 1 weight % alone): 15%
- % MIC of A alone [2, 4]: 1%
- microbial growth percentage ([3]; A 0.025 weight % alone): 73%
- microbial growth percentage ([3]; A 0.05 weight % alone): 73%
- microbial growth percentage ([3]; A 0.1 weight % alone): 49%
- microbial growth percentage ([3]; A 0.2 weight % alone): 9%
- % MIC of A alone [3, 4]: 0.2%

SMILES: CCCCCCCCCCCCCCCCCCCCCC[N+](C)(C)C.[Cl-] [B1, behenyltrimethylammonium chloride]
- microbial growth percentage ([1]; B1 0.049 weight % alone): 186%
- microbial growth percentage ([1]; B1 0.1 weight % alone): 155%
- microbial growth percentage ([1]; B1 0.2 weight % alone): 78%
- microbial growth percentage ([1]; B1 0.4 weight % alone): 34%
- microbial growth percentage ([1]; B1 0.79 weight % alone): 8%
- % MIC of B1 alone [1, 4]: 0.79%
- microbial growth percentage ([2]; B1 0.001975 weight % alone): 68%
- microbial growth percentage ([2]; B1 0.00395 weight % alone): 93%
- microbial growth percentage ([2]; B1 0.0079 weight % alone): 36%
- microbial growth percentage ([2]; B1 0.0158 weight % alone): 30%
- microbial growth percentage ([2]; B1 0.0316 weight % alone): 1%
- % MIC of B1 alone [2, 4]: 0.0316%
- microbial growth percentage ([3]; B1 0.002 weight % alone): 50%
- microbial growth percentage ([3]; B1 0.00395 weight % alone): 1%
- % MIC of B1 alone [3, 4]: 0.00395%
